Tests used:
HUT = HUT cell inhibition assay (WST-1 cell viability); format: cell-based; details: HUT cells, 72-96 h, WST-1 assay, IC50 range
Method: (§1) Cancer cell lines (U937 and HUT) growing in log phase were harvested and seeded at 1000-2000 cells/well (100 μl final volume) into 96-well tissue culture plates. Following 24 h of growth cells were treated with compound. Plates were then re-incubated for a further 72-96 h before a WST-1 cell viability assay was conducted according to the suppliers (Roche Applied Science) instructions.
(§2) Data were expressed as a percentage inhibition of the control, measured in the absence of inhibitor, as follows:— % inhibition=100−[(S^i/S^o)×100] where S^i is the signal in the presence of inhibitor and S^o is the signal in the presence of DMSO.
(§3) Dose response curves were generated from 8 concentrations (top final concentration 10 μM, with 3-fold dilutions), using 6 replicates.
(§4) IC50 values were determined by non-linear regression analysis, after fitting the results to the equation for sigmoidal dose response with variable slope (% activity against log concentration of compound), using Graphpad Prism software.
(§5) IC50 results were allocated to one of 3 ranges as follows: […]

[1] = target: histone deacetylase activity (HeLa nuclear extract); assay: HDAC fluorescent activity assay (Biomol, Fluor de Lys substrate); format: biochemical; details: IC50 range
Method: The ability of compounds to inhibit histone deacetylase activities was measured using the commercially available HDAC fluorescent activity assay from Biomol. In brief, the Fluor de Lys™ substrate, a lysine with an epsilon-amino acetylation, is incubated with the source of histone deacetylase activity (HeLa nuclear extract) in the presence or absence of inhibitor. Deacetylation of the substrate sensitises the substrate to Fluor de Lys™ developer, which generates a fluorophore.
Data are expressed as a percentage of the control, measured in the absence of inhibitor, with background signal being subtracted from all samples, as follows:— % activity=[(S^i−B)/(S^o−B)]×100 where S^i is the signal in the presence of substrate, enzyme and inhibitor, S^o is the signal in the presence of substrate, enzyme and the vehicle in which the inhibitor is dissolved, and B is the background signal measured in the absence of enzyme.
Histone deacetylase activity from crude nuclear extract derived from HeLa cells was used for screening. The preparation, purchased from 4C (Seneffe, Belgium), was prepared from HeLa cells harvested whilst in exponential growth phase. The nuclear extract is prepared according to Dignam JD1983 Nucl. Acid. […] The final buffer composition was 20 mM Hepes, 100 mM KCl, 0.2 mM EDTA, 0.5 mM DTT, 0.2 mM PMSF and 20% (v/v) glycerol.

U937 = U937 cell inhibition assay (WST-1 cell viability); format: cell-based; details: Homo sapiens, U-937; U937 cells, 72-96 h, WST-1 assay, IC50 range
Method: as §1, §2, §3, §4, §5

HeLa cells = assay: HeLa cell inhibition assay (SRB cell viability); format: cell-based; details: Homo sapiens, HeLa, 72 h, IC50 range
Method: HeLa cells growing in log phase were harvested and seeded at 1000 cells/well (200 μl final volume) into 96-well tissue culture plates. Following 24 h of cell growth cells were treated with compounds (final concentration of 20 μM). Plates were then re-incubated for a further 72 h before a sulphorhodamine B (SRB) cell viability assay was conducted according to Skehan 1990 J Natl Canc Inst 82, 1107-1112.
as §2
IC50 values were determined by non-linear regression analysis, after fitting the results of eight data points to the equation for sigmoidal dose response with variable slope (% activity against log concentration of compound), using Graphpad Prism software.
as §5

| SMILES | IC50 (HUT) [nM] | IC50 [1] [nM] | IC50 (U937) [nM] | IC50 (HeLa cells) [nM] |
| --- | --- | --- | --- | --- |
| O=C(NO)c1cnc(N2CC3CN(C(=O)c4ccc5ccccc5c4)CC3C2)nc1 (stereo not shown) [Example 77, N-Hydroxy 2-[5-(naphthalene-2-carbonyl)hexahydropyrrolo[3,4-c]pyrrol-2(1H)-yl]pyrimidine-5-carboxamide] | < 330 | < 100 | 331 to 3300 | < 330 |
| O=C(NO)c1cnc(N2CC3C(C2)C3NCc2cccc(-c3ccccc3)c2)nc1 (stereo not shown) [Example 37, N-Hydroxy 2-{6-[(biphenyl-3-ylmethyl)-amino]-3-aza-bicyclo[3.1.0]hex-3-yl}pyrimidine-5-carboxamide] | < 330 | < 100 | < 330 | < 330 |
| O=C(NO)c1cnc(N2CC3C(C2)C3N2CCOCC2)nc1 (stereo not shown) [Example 62, N-Hydroxy 2-(6-morpholin-4-yl-3-azabicyclo[3.1.0]hex-3-yl)pyrimidine-5-carboxamide] | 331 to 3300 | 101 to 1000 | > 3300 | > 3300 |
| O=C(NO)c1cnc(N2CC3CN(Cc4ccc(Cl)cc4)CC3C2)nc1 (stereo not shown) [Example 85, N-Hydroxy 2-[5-(4-chlorobenzyl)hexahydropyrrolo[3,4-c]pyrrol-2(1H)-yl]pyrimidine-5-carboxamide] | < 330 | < 100 | < 330 | 331 to 3300 |
| O=C(NO)c1cnc(N2CC3C(C2)C3NC(=O)c2ccc3ccccc3c2)nc1 (stereo not shown) [Example 5, N-Hydroxy 2-{6-[(naphthalene-2-carbonyl)amino]-3-aza-bicyclo[3.1.0]hex-3-yl}pyrimidine-5-carboxamide] | < 330 | < 100 | 331 to 3300 | 331 to 3300 |
| O=C(NO)c1cnc(N2CC3C(CNCc4ccc(Cl)cc4)C3C2)nc1 (stereo not shown) [Example 73, N-Hydroxy 2-(6-{[(4-chlorobenzyl)amino]methyl}-3-azabicyclo[3.1.0]hex-3-yl)pyrimidine-5-carboxamide] | < 330 | < 100 | 331 to 3300 | 331 to 3300 |
| O=C(NO)c1cnc(N2CC3C(C2)C3N(Cc2cccnc2)Cc2ccc3ccccc3c2)nc1 (stereo not shown) [Example 58, N-Hydroxy 2-[6-(naphthalen-2-ylmethylpyridin-3-ylmethylamino)-3-aza-bicyclo[3.1.0]hex-3-yl]pyrimidine-5-carboxamide] | 331 to 3300 | 101 to 1000 | 331 to 3300 | 331 to 3300 |
| O=C(Cc1ccc(-c2ccccc2)cc1)NC1C2CN(c3ncc(C(=O)NO)cn3)CC21 (stereo not shown) [Example 19, N-Hydroxy 2-[6-(2-biphenyl-4-yl-acetylamino)-3-azabicyclo[3.1.0]hex-3-yl]pyrimidine-5-carboxamide] | < 330 | < 100 | < 330 | < 330 |
| O=C(NO)c1cnc(N2CC3C(C2)C3N(CCN2CCCCC2)S(=O)(=O)c2ccc3ccccc3c2)nc1 (stereo not shown) [Example 53, N-Hydroxy 2-{6-[(naphthalene-2-sulfonyl)-(2-piperidin-1-ylethyl)amino]-3-azabicyclo[3.1.0]hex-3-yl}pyrimidine-5-carboxamide] | < 330 | < 100 | < 330 | < 330 |
| O=C(NO)c1cnc(N2CC3C(CNCc4ccc5ccccc5n4)C3C2)nc1 (stereo not shown) [Example 74, N-Hydroxy 2-(6-{[(quinolin-2-ylmethyl)amino]methyl}-3-azabicyclo[3.1.0]hex-3-yl)pyrimidine-5-carboxamide] | < 330 | < 100 | 331 to 3300 | 331 to 3300 |
| O=C(NO)c1cnc(N2CC3C(C2)C3N(CCO)S(=O)(=O)c2ccc3ccccc3c2)nc1 (stereo not shown) [Example 49, N-Hydroxy 2-{6-[(2-hydroxyethyl)(naphthalene-2-sulfonyl)amino]-3-azabicyclo[3.1.0]hex-3-yl}pyrimidine-5-carboxamide] | 331 to 3300 | < 100 | 331 to 3300 | 331 to 3300 |
| O=C(NO)c1cnc(N2CC3CN(S(=O)(=O)c4cc(C(F)(F)F)cc(C(F)(F)F)c4)CC3C2)nc1 (stereo not shown) [Example 81, N-hydroxy 2-[5-(3,5-bistrifluoromethylbenzenesulfonyl)hexahydropyrrolo[3,4-c]pyrrol-2(1H)-yl]-pyrimidine-5-carboxamide] | 331 to 3300 | < 100 | 331 to 3300 | > 3300 |
| O=C(NO)c1cnc(N2CC3C(CNCc4ccc5cc(F)ccc5n4)C3C2)nc1 (stereo not shown) [Example 75, N-Hydroxy 2-(6-{[(6-fluoroquinolin-2-ylmethyl)amino]methyl}-3-aza-bicyclo[3.1.0]hex-3-yl)pyrimidine-5-carboxamide] | 331 to 3300 | 101 to 1000 | 331 to 3300 | 331 to 3300 |
| O=C(NO)c1cnc(N2CC3C(C2)C3Nc2nccc3ccccc23)nc1 (stereo not shown) [Example 68, N-Hydroxy 2-[6-(isoquinolin-1-ylamino)-3-azabicyclo[3.1.0]hex-3-yl]pyrimidine-5-carboxamide] | < 330 | < 100 | < 330 | < 330 |
| O=C(NO)c1ccc(N2CC3C(C2)C3NCc2ccc3ccccc3c2)cc1 (stereo not shown) [Example 88, N-Hydroxy 4-{6-[(naphthalen-2-ylmethyl)-amino]-3-azabicyclo[3.1.0]hex-3-yl}-benzamide] | 331 to 3300 | 101 to 1000 | 331 to 3300 | 331 to 3300 |
| O=C(NO)c1cnc(N2CC3C(C2)C3NC(c2ccccc2)C(F)(F)F)nc1 (stereo not shown) [Example 40, N-Hydroxy 2-{6-[(2,2,2-trifluoro-1-phenylethyl)amino]-3-azabicyclo[3.1.0]hex-3-yl}pyrimidine-5-carboxamide] | < 330 | < 100 | 331 to 3300 | 331 to 3300 |
| O=C(NO)c1cnc(N2CC3C(C2)C3N2Cc3ccccc3C2)nc1 (stereo not shown) [Example 64, N-Hydroxy 2-[6-(1,3-dihydro-2H-isoindol-2-yl)-3-azabicyclo[3.1.0]hex-3-yl]pyrimidine-5-carboxamide] | < 330 | < 100 | 331 to 3300 | 331 to 3300 |
| O=C(NO)c1cnc(N2CC3C(C2)C3N(Cc2ccc3ccccc3c2)Cc2ccc3ccccc3c2)nc1 (stereo not shown) [Example 57, N-Hydroxy 2-[6-(bisnaphthalen-2-ylmethylamino)-3-azabicyclo[3.1.0]hex-3-yl]pyrimidine-5-carboxamide] | > 3300 | > 1000 | > 3300 | > 3300 |
| O=C(NO)c1cnc(N2CC3C(C2)C3N2CCc3ccccc3C2)nc1 (stereo not shown) [Example 66, N-Hydroxy 2-[6-(3,4-dihydroisoquinolin-2(1H)-yl)-3-azabicyclo[3.1.0]hex-3-yl]pyrimidine-5-carboxamide] | 331 to 3300 | < 100 | 331 to 3300 | 331 to 3300 |
| Cn1cc(CC(=O)NC2C3CN(c4ncc(C(=O)NO)cn4)CC32)c2ccccc21 (stereo not shown) [Example 14, N-Hydroxy 2-{6-[2-(1-methyl-1H-indol-3-yl)acetylamino]-3-aza-bicyclo[3.1.0]hex-3-yl}pyrimidine-5-carboxamide] | 331 to 3300 | < 100 | 331 to 3300 | 331 to 3300 |
| O=C(NO)c1cnc(N2CC3C(C2)C3N(CCc2ccccn2)S(=O)(=O)c2ccc3ccccc3c2)nc1 (stereo not shown) [Example 54, N-Hydroxy 2-{6-[(naphthalene-2-sulfonyl)-(2-pyridin-2-ylethyl)-amino]-3-azabicyclo[3.1.0]hex-3-yl}pyrimidine-5-carboxamide] | 331 to 3300 | < 100 | 331 to 3300 | 331 to 3300 |
| O=C(NO)c1cnc(N2CC3C(C2)C3N(Cc2ccc3ccccc3c2)C(=O)CCc2cccnc2)nc1 (stereo not shown) [Example 61, N-Hydroxy 2-{6-[naphthalen-2-ylmethyl-(3-pyridin-3-yl-propionyl)amino]-3-aza-bicyclo[3.1.0]hex-3-yl}pyrimidine-5-carboxamide] | < 330 | < 100 | 331 to 3300 | 331 to 3300 |

Reference: US7932246B2, “Histone deacetylase inhibitors” (Chroma Therapeutics Ltd., priority 2005, dated 2011)
